Read-outs that look alike come from different tables or passages of the source.
Experiments:
Format in all cases: cell-based, human
[1] = molecular target: p21 minimal promoter; experiment: Fluorometric β-lactamase activity assay in stable HeLa clone 1.17 (p21m-BLA); conditions: read-out: p21m-Bla EC50
Method: All clones were screened for the presence of stably and functional integrated copies of the p21m-BLA reporter gene transcription cassette by performing a fluorometric β-lactamase activity assay after treatment with the HDAC inhibitor Apicidin at a concentration of 1 μM (saturating dose representing 100% of Bla gene activation, i.e., 100% of HDAC inhibition). A 100 μL aliquot of cells for each stable transformant in complete DMEM was plated into a well of a 96 well plate at about 36,000 cells per well for treatment with 1 μM Apicidin (saturating dose) and a 100 μL aliquot of cells was plated into a well of a 96 well plate at 24,000 cells per well for treatment with DMSO (vehicle control). […] After 4 hours, 25 μL of complete DMEM containing Apicidin at 5× final concentration or DMSO (5%) was added to each of the wells. The cells were then grown at 37° C., 5% CO2 for about 12 to 16 hours. Afterwards, the medium was removed and 100 μL of DMEM without serum and 25 μL of FRET labeled CCF2-AM Bla substrate diluted in the appropriate buffer according to the manufacturer recommendations were each added to the cells to give a final concentration of 1 μM CCF2-AM.

[2] = tested on: endogenous p21; experiment: Induction of endogenous p21 in HeLa cells, immunoblot; conditions: 13 hour treatment, immunoblot densitometry, read-out: Endogenous p2 EC50
Method: (§1) Induction of endogenous p21 and acetylation of core histones (inhibition of HDAC activity) was as follows. Dose-response experiments were performed in HeLa cells with different classes of known HDAC inhibitors. […] An α-tubulin-specific antibody (Sigma, St. Louis, Mo.; catalog number: T9026) was used as an internal standard. Quantitative data were obtained by densitometric analysis of X-ray films and were normalized for the internal standard values.

[3] = tested on: HDAC activity (acetylated histone H3); experiment: Acetylation of core histones (inhibition of HDAC activity) in HeLa cells, acetylated histone H3 immunoblot; conditions: Homo sapiens; HeLa cells, 13 hour treatment, immunoblot densitometry; read-out: AcH3 EC50
Method: as §1

Nc1ccccc1NC(=O)c1ccc(CNC(=O)OCc2cccnc2)cc1 [MS27-275] showed an EC50 ([1]; clone 1.17, about 13 hours treatment, means of 3 to 4 independent experiments) of 12 µM and an EC50 [2] of 22 µM.
CCCC(=O)[O-].[Na+] [Na-butyrate, sodium butyrate] gave an EC50 ([1]; Homo sapiens, HeLa, 13 h) of 2000 µM.
In the case of O=C(CCCCCCC(=O)Nc1ccccc1)NO [SAHA, suberoylanilide hydroxamic acid], the EC50 [3] is reported as 0.8 µM.

— patent US20080057529A1, “Method for Identifying Histone Deacetylase Inhibitors” (priority 2003, published 2008)
